Like-named read-outs stand apart in the source and are kept apart here.
Legend:
Assay type in all cases: in vivo
[1] = system: Pratylenchus coffeae; assay: Nematode control, nodules per plant: Pratylenchus coffeae; conditions: 1 μM foliar application every 5 days, evaluation 35 days after, control 42
Outline: (§1)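 Each compound was dissolved in ethanol, then diluted with water to 1 μM. Only the leaves were sprayed, with applications repeated every 5 days on ten plants per treatment. After 35 days, nodules per plant were quantified.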

[2] = system: Rhizoctonia solani; assay: Control of Rhizoctonia solani disease in tomato (Rs-SI); conditions: 1 μM spraying every 24 hours for one week, water control 96
[3] = system: Botrytis cinerea; assay: Control of Botrytis cinerea disease in tobacco (Bc-Nt); conditions: 1 μM spraying every 24 hours for one week, water control 6.7
Outline: (§2)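 Plants were inoculated first, then sprayed with compound at 1 μM every 24 hours for one week, with water-sprayed plants as controls and fifty plants per treatment. Read-outs were plant mortality rate for Nocardia, percentage of leaves with symptoms for Alternaria, and lesion diameter for Botrytis.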

[4] = system: Nocardia sp; assay: Control of Nocardia sp disease in tobacco (N-Nt); conditions: 1 μM spraying every 24 hours for one week, water control 58
Outline: as §2

[5] = system: Radopholus similis; assay: Nematode control, nodules per plant: Radopholus similis; conditions: 1 μM foliar application every 5 days, evaluation 35 days after, control 45
Outline: as §1

[6] = system: Candidatus 'Liberibacter asiaticus'; conditions: spraying every 15 days, 12 months after treatment, Citrus sinensis with HLB
[7] = system: Botrytis cinerea; assay: Control of Botrytis cinerea disease in Arabidopsis (Bc-At); conditions: 1 μM spraying every 24 hours for one week, water control 8.7
Outline: as §2

[8] = system: Meloidogyne incognita; assay: Nematode control, nodules per plant: Meloidogyne incognita; conditions: 1 μM foliar application every 5 days, evaluation 35 days after, control 34
Outline: as §1

[9] = system: Alternaria solani; assay: Control of Alternaria solani disease in tomato (As-SI); conditions: 1 μM spraying every 24 hours for one week, water control 68
Outline: as §2

[10] = system: Phytophthora parasitica; assay: Control of Phytophthora parasitica disease in tobacco (Pp-Nt); conditions: 1 μM spraying every 24 hours for one week, water control 91
[11] = system: Rhizoctonia solani; assay: Control of Rhizoctonia solani disease in tobacco (Rs-Nt); conditions: 1 μM spraying every 24 hours for one week, water control 87
[12] = system: Botrytis cinerea; assay: Control of Botrytis cinerea disease in tomato (Bc-SI); conditions: 1 μM spraying every 24 hours for one week, water control 7.4
Outline: as §2

Structure (SMILES)	Pc: number of nodules per plant [1]	Rs-SI: percentage of mortality [2] [%]	Bc-Nt: mean of the diameter of the lesion [3] [mm]	N-Nt: percentage of mortality [4] [%]	Rs: number of nodules per plant [5]	Titers of the bacterium ([6]; 0.001 μM) [copies per reaction]	Titers of the bacterium ([6]; 0.01 μM) [copies per reaction]	Titers of the bacterium ([6]; 1 μM) [copies per reaction]	Titers of the bacterium ([6]; 5 μM) [copies per reaction]	Titers of the bacterium ([6]; 10 μM) [copies per reaction]	Bc-At: mean of the diameter of the lesion [7] [mm]	Mi: number of nodules per plant [8]	As-SI: percentage of leaves with the disease symptoms [9] [%]	Pp-Nt: percentage of mortality [10] [%]	Rs-Nt: percentage of mortality [11] [%]	Bc-SI: mean of the diameter of the lesion [12] [mm]
CC(O)C(O)CN1CCC(Oc2ccc(C(=O)N3CCC(c4ccccc4)C3)cc2)CC1 (stereo not drawn) [IVD, 1-(4-{4-[(3-phenylpyrrolidin-1-yl)carbonyl]phenoxy}piperidin-1-yl)butane-2,3-diol]	15	2	2.0	1	2	587	0	0	87	2368	1.1	3	2	2	3	1.6
O=C(c1ccc(OC2CCN(CC(O)CO)CC2)cc1)N1CCC(C2CCCCC2)C1 (stereo not drawn) [IVE]	2	2	0.9	2	14	985	0	0	98	9845	0.5	4	3	1	4	0.8
CC(O)C(O)CN1CCC(Oc2ccc(C(=O)N3CCC(C4CCCCC4)C3)cc2)CC1 (stereo not drawn) [IVF, 1-(4-{4-[(3-cyclohexylpyrrolidin-1-yl)carbonyl]phenoxy}piperidin-1-yl)butane-2,3-diol]	17	2	1.5	1	0	657	0	0	67	8654	1.5	0	8	0	0	2.5
O=C(c1ccc(OC2CCN(CC(O)CO)CC2)cc1)N1CCC(C2CCCC2)C1 (stereo not drawn) [IVG, 3-(4-{4-[(3-cyclopentylpyrrolidin-1-yl)carbonyl]phenoxy}piperidin-1-yl)propane-1,2-diol]	0	0	1.5	0	0	658	0	0	68	4562	2.4	0	7	0	0	0.8
CC(O)C(O)CN1CCC(Oc2ccc(C(=O)N3CCC(C4CCCC4)C3)cc2)CC1 (stereo not drawn) [IVH, 1-(4-{4-[(3-cyclopentylpyrrolidin-1-yl)carbonyl]phenoxy}piperidin-1-yl)butane-2,3-diol]	0	1	0.9	0	0	756	0	0	76	1351	0.7	0	5	0	0	1.2
O=C(c1ccc(OC2CCN(CC(O)CO)CC2)cc1)N1CCCC1 (stereo not drawn) [IVI, 3-(4-{4-[(pyrrolidin-1-yl)carbonyl]phenoxy}piperidin-1-yl)propane-1,2-diol]	0	1	0.3	0	3	456	4	2	56	2547	1.2	0	7	3	0	0.8

— US11013235B2 (priority 2015, dated 2021)
